Assay results published in patent publication US20250387382A1, “METHODS OF TREATING ESSENTIAL TREMOR” (Praxis Precision Medicines, Inc., priority 2023, published 2025).

Tests used:
Format in all cases: in vivo, human
patients with ET = assay: Open-label extension of the Phase 2 trial (blinded six-week lead-in, week 14 assessment)
Protocol: After the DB part of the trial was complete, participants were able to choose to enter the Extension part of the trial. Participants who chose to enter the Extension began receiving OL study drug for up to 12 months, or start of the cross-over period, after a 43-day Extension DB Lead-in Period, whichever was earlier. During this Extension DB Lead-in Period, participants who received placebo or 60 mg in the DB part of the trial titrated up to 100 mg in a DB fashion utilizing the same dose titration regimen as in the DB part of the trial. Participants who received 100 mg in the DB part of the trial continued to receive 100 mg in a blinded fashion until all participants were receiving Compound 1 100 mg QAM as of Day 99. Participants who were unable to tolerate fixed-dose titration to 100 mg during the Extension DB Lead-in Period were discontinued from the trial and asked to attend the Safety Follow-up/EOS-E Visit. After the Extension DB Lead-in Period, participants flexibly dosed with Compound 1 (20-100 mg) QAM at the discretion of the Investigator during the Extension OL Period until the start of the cross-over period. Participants who consented to participate in the separate LTSS were able to end participation in the current study after completing the End of Treatment Visit and join the LTSS at any point during the Extension OL Period.
All participants who continued into the Extension part of the trial participated in a 43 day Extension DB Lead-in Period so all participants could be titrated to the 100-mg dose in a blinded fashion (Table 2) before receiving open-label, flexible doses of Compound 1 (20-100 mg) for up to 12 months (Days 100-459) during the Extension OL Period.
Following completion of the initial 8 weeks double-blind treatment phase of the Phase 2 trial described in Example 1, eligible patients had the option to continue their access to Compound 1 in an open-label extension phase (OLE). Participants who continued to the open label extension (OLE) phase remained blinded for a six-week lead-in phase.
In the Extension part of the trial, measures of efficacy include analysis of change from baseline to Days 70, 84, 99, 129, 159, 189, 279, 369, and 459 in modified ADL, CGI-S, TETRAS-ADL total score, TETRAS-PS total score, TETRAS UL score, TETRAS CUL score, and CGI-I and PGI-C scores at Days 70, 84, 99, 129, 159, 189, 279, 369, and 459.
A total of 65 patients who completed the double-blinded portion of the Phase 2 trial described in Example 1 were eligible to participate in the OLE and completed the week 14 assessment. FIG. 21 is a bar graph showing change in mADL11 scores from baseline, by study week from week 8 to week 14. Patients who were eligible and continued on Compound 1 (n=39) experienced an additional mean improvement in mADL11 of 1.7 points from 3.09 at Weck 8 (95% CI: 0.98, 5.2) to 4.81 (95% CI: 2.38, 7.23) after 14 weeks of treatment. Patients who switched from placebo to Compound 1 treatment during the OLE 6-week lead-in (n=26) experienced mean improvement in mADL11 of 3.15 points from 1.21 at Week 8 (95% CI: −1.04, 3.46) to 4.36 (95% CI: 1.68, 7.05.

[1] = tested on: participants with moderate to severe ET; assay: Phase 2 trial, double-blind part: safety/tolerability
Protocol: This trial is a Phase 2 trial to evaluate the efficacy and safety/tolerability of titration of Compound 1 to 60 mg or 100 mg compared to placebo in participants with moderate to severe ET. Severity of ET in this study was defined by eligibility criteria on TETRAS-ADL, CGI-S, and TETRAS-PS items 6 and 7. This dose range finding trial is comprised of three parts. The first part was randomized, double-blinded (DB), and placebo-controlled, the second part was an optional extension that consisted of an Extension DB Lead-in Period followed by an Extension Open-label (OL) Period. Further, there was also a third part available for completers of the Day 99 visit, which third part was comprised of a blinded cross-over period (referred to as cross-over period) after re-randomization for 6 weeks, after which all completers would receive formula (I) in an open-label fashion. In part one of the trial, eligible participants were randomized to 1 of 2 dose levels of Compound 1 (60 mg or 100 mg) or to placebo. The primary objective of this trial was to evaluate the efficacy of Compound 1 compared to placebo after 56 days (end of randomized, DB, placebo-controlled part) of dosing in participants with ET with moderate to severe tremor utilizing modified ADL as the primary efficacy endpoint. Secondary and exploratory objectives include further efficacy evaluations, an evaluation of the safety and tolerability, and determination of plasma concentrations of formula (I) and its metabolites. The design of the Phase 2 trial is illustrated in FIG. 1.
Throughout the Intervention Period (Day 1 to Day 56), participants who chose to stop dosing or were required to stop dosing entered the Safety Follow-up Period. All participants were asked to return to the clinic for the Safety Follow-up Visit 14 days after their last dose of study drug except for those that chose to enroll in the optional Extension part of the trial (see below).
On Days 7, 21, 35, and 54 participants received a telephone call from site staff to ask about AEs and changes in concomitant medications.

[2] = tested on: healthy participants and patients with ET; assay: Safety across the clinical development program
[3] = patients who continued on Compound 1, n=39
[4] = patients who switched from placebo to Compound 1, n=26

With CC(C)(C)NC(=O)CN1CCC(CNC(=O)c2cc(F)cc(Cl)c2)CC1 [Compound 1, N-((1-(2-(tert-butylamino)-2-oxoethyl)piperidin-4-yl)methyl)-3-chloro-5-fluorobenzamide] the “Additional mean improvement in mADL11 from Week 8 to week 14” value (patients with ET; [3]) was 1.7 points, the “mADL11 mean improvement from baseline after 14 weeks” value (patients with ET; [3]) was 4.81 points and the “mADL11 mean improvement from baseline at Week 8” value (patients with ET; [3]) was 3.09 points. For the same compound, the “Mean improvement in mADL11 from Week 8 during OLE 6-week lead-in” value (patients with ET; [4]) was 3.15 points, the “mADL11 mean improvement from baseline after OLE 6-week lead-in” value (patients with ET; [4]) was 4.36 points and the Overall safety results (patients with ET; through 14 weeks of treatment) was “no change to the overall safety results”. The “Safety profile, 60 mg vs 100 mg groups” value ([1]; in vivo) was “no significant difference in the safety profile”, the “Severity of the majority of TEAEs” value ([1]; in vivo) was “mild-moderate” and the “Proportion of subjects who discontinued” value ([1]; placebo 11%) was 17%. The Tolerability ([1]; titration to 60 mg or 100 mg, 56 days) was “well tolerated”, the “Deaths or SAEs considered related to study drug” value ([2]; human, in vivo) was “No deaths or serious adverse events (SAEs)” and the “Suicide attempts or pregnancies reported” value ([2]; human, in vivo) was “no suicide attempts or pregnancies”. For the same compound, the Safety profile ([2]; modified release formulation, titration, 5 to 120 mg for up to 129 days) was “favorable safety profile” and the Tolerability ([2]; up to 129-days of daily administration, 5 to 120 mg, titration schedule) was “generally well tolerated”.
